Laboratory results taken from patent publication US20220193256A1, “NANO-ANTIBIOTICS BASED ON SINGLE-CHAIN DEXTRAN NANOPARTICLES” (priority 2019, published 2022).
In brackets after ≈: the same amount, converted by molar mass. Marks after values point to notes of the source that are not given here.

What was measured:
P. aeruginosa = assay: MIC 50 of free antibiotics and nanoconjugates; format: cell-based
Description: (§1) All test and quality control strains were recovered from frozen storage (−80° C.) and cultured at 35±2° C. for 18-24 h.
(§2) All test articles were dissolved in sterile ultra-pure water at a concentration of 2.56 mg/mL. […] 100 and 200 μL of drug-free medium was added to positive and negative control wells, respectively. Suspensions equivalent to a McFarland 0.5 standard were prepared for each test strain in 5 mL sterile phosphate-buffered saline (PBS) and further diluted 1:150 in CA-MHB to provide an inoculum of 2-8×10^5 CFU/mL. 100 μL of each inoculum was dispensed into all wells—except negative control wells (100 μL sterile water added)—to provide an inoculum of ˜5×10^5 CFU/well and a final volume of 200 μL per well. Assay plates were incubated according to CLSI M07-A10 guidelines of 35±2° C. for 16-20 h in air.

[1] = Release profile test of tobramycin in PBS (dialysis tubes, LC-MS); format: in vitro ADME; conditions: PBS pH 7.4, 37° C.
Description: 1 mL dialysis tubes (Float-a-lyzer®) were used whose membrane is based on MWCO 8-10 kDa cellulose ester. […] The studies were performed in a chamber at 37° C. and stirring at 250 rpm. Samples were taken at different times and analyzed by LC-MS.

[2] = test system: A. baumannii ATCC BAA-747; assay: MIC, antimicrobial susceptibility test (CLSI M07-A10); format: cell-based
Description: as §1, §2

A. baumannii NCTC 12156 = assay: as above; format: cell-based
Description: as §1, §2

E. aerogenes KPC 108 = assay: as above; format: cell-based
Description: as §1, §2

[3] = test system: E. cloacae complex KPC 114; assay: as above; format: cell-based
Description: as §1, §2

E. coli ATCC 25922 = assay: as above; format: cell-based
Description: as §1, §2

E. coli ATCC BAA-2469 = assay: as above; format: cell-based; conditions: Escherichia coli, ATCCBAA2469; read-out: Test Article MIC
Description: as §1, §2

K. pneumoniae ATCC 43816 = assay: as above; format: cell-based
Description: as §1, §2

[4] = test system: K. pneumoniae ATCC BAA-2146; assay: as above; format: cell-based; conditions: Klebsiella pneumoniae, ATCCBAA2146; read-out: Test Article MIC
Description: as §1, §2

P. aeruginosa ATCC 13437 = assay: as above; format: cell-based; conditions: replicates 1 and 2, as tobramycin concentration
Description: as §1, §2

P. aeruginosa ATCC 27853 [5] = assay: as above; format: cell-based
Description: as §1, §2

S. aureus = assay: MIC 50 of free antibiotics and nanoconjugates; format: cell-based
Description: as §1, §2

[6] = test system: biofilm of Pseudomonas Aeruginosa PAO1 gfp; assay: Testing against biofilm; format: cell-based; conditions: 3-day biofilm treated for 12 h, tobramycin concentration 2 μg/mL
Description: Continuous biofilm of Pseudomonas Aeruginosa PAO1 gfp in LB medium was grown for 3 days. […] Images were obtained using a 20×/0.80 air objective with Zeiss LSM 800 Confocal laser scanning microscope. Simulated fluorescence projections and orthogonoal views sections were processed using ImageJ software. Data were analysed with COMSTAT2 software.

[7] = In vivo pharmacokinetic profile in the lungs after oropharyngeal deposition; parameters: species or system Sprague Dawley rats; conditions: male, Sprague Dawley, rat, lung homogenate, other: oropharyngeal deposition, 10 mg/kg
Description: The administration technique was oropharyngeal deposition. Following administration, terminal lung samples were collected at the following time-points: 0.083, 0.25, 0.5, 1, 2, 4, 8, 12, 24 h post-dose.
For the purpose of the invention, the AUC was measured by the trapezoidal method using the following formula: […]

P. aeruginosa ATCC 27853 [8] = assay: MIC by visual inspection, P. aeruginosa panel; format: cell-based; conditions: Pseudomonas aeruginosa, ATCC27853; P. aeruginosa ATCC 27853, reference strain; read-out: Test Article MIC
Description: (§3) The clinical isolates were obtained from the Biobank of the Hospital Donostia/Biodonostia (San Sebastian, Spain) with permission. MIC is obtained by visual inspection and considered the minimum concentration at which no bacterial growth can be detected (i. e. the buffer appears transparent) when bacteria was incubated at gradient concentration of test compound.

PA14 DSMZ 19882 = assay: MIC by visual inspection, P. aeruginosa panel; format: cell-based; conditions: Pseudomonas aeruginosa; PA14 DSMZ 19882, investigational strain; read-out: Test Article MIC
Description: as §3

PACC#10 = assay: MIC by visual inspection, P. aeruginosa panel; format: cell-based; conditions: Pseudomonas aeruginosa; PACC#10, clinical isolate, mucoid phenotype; read-out: Test Article MIC
Description: as §3

PACC#5 = assay: MIC by visual inspection, P. aeruginosa panel; format: cell-based; conditions: Pseudomonas aeruginosa; PACC#5, clinical isolate, mucoid phenotype; read-out: Test Article MIC
Description: as §3

PACC#6 = assay: MIC by visual inspection, P. aeruginosa panel; format: cell-based; conditions: Pseudomonas aeruginosa; read-out: Test Article MIC
Description: as §3

PACC#7 = assay: MIC by visual inspection, P. aeruginosa panel; format: cell-based; conditions: Pseudomonas aeruginosa; PACC#7, clinical isolate, mucoid phenotype; read-out: Test Article MIC
Description: as §3

PACC#8 = assay: MIC by visual inspection, P. aeruginosa panel; format: cell-based; conditions: Pseudomonas aeruginosa; PACC#8, clinical isolate; read-out: Test Article MIC
Description: as §3

PACC#9 = assay: MIC by visual inspection, P. aeruginosa panel; format: cell-based; conditions: Pseudomonas aeruginosa; PACC#9, clinical isolate, mucoid phenotype; read-out: Test Article MIC
Description: as §3

PAO1 DSMZ 22644 = assay: MIC by visual inspection, P. aeruginosa panel; format: cell-based; conditions: Pseudomonas aeruginosa; PAO1 DSMZ 22644, investigational strain; read-out: Test Article MIC
Description: as §3

## Colistin sulfate [Free Colistin sulfate]
P. aeruginosa
  MIC 50, Antibiotic conc.: 1 to 5 µg/mL

## NC[C@H]1O[C@H](O[C@H]2[C@H](O)[C@@H](O[C@H]3O[C@H](CO)[C@@H](O)[C@H](N)[C@H]3O)[C@H](N)C[C@@H]2N)[C@H](N)C[C@@H]1O [Tobramycin, tobramycin]
[1]; time 0 hour
  Tobramycin released (%): 0.30%
[1]; time 1 hour
  Tobramycin released (%): 2.91%
[1]; time 2 hour
  Tobramycin released (%): 7.57%
[1]; time 4 hour
  Tobramycin released (%): 19.03%
[1]; time 8 hour
  Tobramycin released (%): 28.72%
[1]; time 24 hour
  Tobramycin released (%): 58.41%
[1]; time 48 hour
  Tobramycin released (%): 78.88%
[1]; time 72 hour
  Tobramycin released (%): 87.20%
[2]; A. baumannii ATCC BAA-747, replicates 1 and 2, as tobramycin concentration
  Test Article MIC: 0.5 µg/mL
[2]; Acinetobacter baumannii, ATCCBAA747, read-out: Test Article MIC
  MIC: 0.5 µg/mL (≈ 1.07 µM)
A. baumannii NCTC 12156; A. baumannii NCTC 12156, replicates 1 and 2, as tobramycin concentration
  Test Article MIC: 4 µg/mL
A. baumannii NCTC 12156; Acinetobacter baumannii, NCTC12156, read-out: Test Article MIC
  MIC: 4 µg/mL (≈ 8.56 µM)
E. aerogenes KPC 108; E. aerogenes KPC 108, replicates 1 and 2, as tobramycin concentration
  Test Article MIC: 4 µg/mL
E. aerogenes KPC 108; Klebsiella aerogenes, KPC108, read-out: Test Article MIC
  MIC: 4 µg/mL (≈ 8.56 µM)
[3]; E. cloacae complex KPC 114, replicates 1 and 2, as tobramycin concentration
  Test Article MIC: 32 µg/mL
[3]; Enterobacter cloacae, read-out: Test Article MIC
  MIC: 32 µg/mL (≈ 68.4 µM)
E. coli ATCC 25922; E. coli ATCC 25922, replicates 1 and 2, as tobramycin concentration
  Test Article MIC: 2^a μg/mL
E. coli ATCC 25922; Escherichia coli, ATCC25922, read-out: Test Article MIC
  MIC: 2 µg/mL (≈ 4.28 µM)
E. coli ATCC BAA-2469
  MIC: > 128 µg/mL
K. pneumoniae ATCC 43816; K. pneumoniae ATCC 43816, replicates 1 and 2, as tobramycin concentration
  Test Article MIC: 0.5 µg/mL
K. pneumoniae ATCC 43816; Klebsiella pneumoniae, ATCC43816, read-out: Test Article MIC
  MIC: 0.5 µg/mL (≈ 1.07 µM)
[4]
  MIC: > 128 µg/mL
P. aeruginosa ATCC 13437; P. aeruginosa ATCC 13437, listed as Free Tobramycin
  Test Article MIC: 64 µg/mL
P. aeruginosa ATCC 13437; Pseudomonas aeruginosa, ATCC13437, P. aeruginosa ATCC 13437, read-out: Test Article MIC
  MIC: 128 µg/mL (≈ 274 µM)
P. aeruginosa ATCC 27853 [5]; P. aeruginosa ATCC 27853, replicates 1 and 2, as tobramycin concentration
  Test Article MIC: 1^b μg/mL
P. aeruginosa ATCC 27853 [5]; Pseudomonas aeruginosa, ATCC27853, read-out: Test Article MIC
  MIC: 1 µg/mL (≈ 2.14 µM)
P. aeruginosa
  MIC 50, Antibiotic conc.: 0.5 to 1 µg/mL
S. aureus
  MIC 50, Antibiotic conc.: 0.5 to 1 µg/mL
[6]
  % Biomass (μm^3/μm^2): 68.1%
[6]; listed as tobramycin
  % Biomass (μm^3/μm^2): 68.1%
[7]
  AUC: 1110 µg·h/mL
P. aeruginosa ATCC 27853 [8]
  MIC: 0.5 µg/mL (≈ 1.07 µM)
PA14 DSMZ 19882
  MIC: 0.5 µg/mL (≈ 1.07 µM)
PACC#10
  MIC: 1 µg/mL (≈ 2.14 µM)
PACC#5
  MIC: 0.5 µg/mL (≈ 1.07 µM)
PACC#6
  MIC: ≥ 4 µg/mL
PACC#7
  MIC: 0.5 µg/mL (≈ 1.07 µM)
PACC#8
  MIC: 0.5 µg/mL (≈ 1.07 µM)
PACC#9
  MIC: 0.5 µg/mL (≈ 1.07 µM)
PAO1 DSMZ 22644
  MIC: 0.5 µg/mL (≈ 1.07 µM)

## gentamycin sulfate [Free Gentamycin sulfate]
P. aeruginosa
  MIC 50, Antibiotic conc.: 1 to 5 µg/mL
S. aureus
  MIC 50, Antibiotic conc.: 1 to 5 µg/mL
